The results in this text go back to article PMC9320114 (Molecules, 2022).

The target of the experiment is MurC (Escherichia coli, UniProt P17952). Put plainly: Inhibition of MurC, colorimetric malachite green method. The format is biochemical, bacterial. On the procedure: Inhibition of Mur enzymes was monitored with the colorimetric malachite green method, which measured orthophosphate formed during reaction. The mixtures with a final volume of 50 µL contained:
MurC: 50 mM HEPES-NaOH, pH 8.0, 5 mM MgCl2, 0.005% Triton X-114, 120 µM L-Ala, 120 µM UDP-N-acetyl-muramic acid, 450 µM ATP, purified MurC, and 50 or 100 µM of each compound tested.
All compounds were soluble in the assay mixtures containing 5% DMSO (v/v). After incubation for 15 min (20 min for DdlB) at 37 °C, the enzyme reaction was terminated by addition of Biomol® reagent (100 µL) and absorbance was measured after 5 min at 650 nm (Synergy™ H4 microplate reader; BioTek Instruments, Inc., BioTek Gen5 Data Analysis Software, version 2.9, Santa Clara, CA, USA). All experiments were performed in duplicate.

The structures appear in SMILES notation.

Sequence of MurC (P17952 whole entry): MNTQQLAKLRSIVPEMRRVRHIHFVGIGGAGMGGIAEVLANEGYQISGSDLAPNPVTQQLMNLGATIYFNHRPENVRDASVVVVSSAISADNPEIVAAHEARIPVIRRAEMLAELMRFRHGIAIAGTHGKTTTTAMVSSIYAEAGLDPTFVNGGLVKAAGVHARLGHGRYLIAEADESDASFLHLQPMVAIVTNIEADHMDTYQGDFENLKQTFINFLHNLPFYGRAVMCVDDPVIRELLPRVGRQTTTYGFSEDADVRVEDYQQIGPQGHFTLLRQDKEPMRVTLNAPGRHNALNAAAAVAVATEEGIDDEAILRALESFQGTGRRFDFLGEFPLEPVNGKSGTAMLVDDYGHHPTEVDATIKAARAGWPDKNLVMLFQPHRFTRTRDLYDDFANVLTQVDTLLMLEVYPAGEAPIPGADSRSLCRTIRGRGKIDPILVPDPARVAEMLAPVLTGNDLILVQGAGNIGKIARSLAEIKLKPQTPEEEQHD

Take `CCCCc1nc2ccn(CC(=O)C(C)(C)C)c(=O)c2n1Cc1ccc(-c2ccccc2-c2nnn[nH]2)cc1` [Compound 17]: the remaining activity at 100 µM (0.25 h, residual activity at 100 µM, Table 2, read-out: MurC RA (%)) worked out at 75%. In addition, the “MurC inhibition (in words)” value (assayed at 100 µM) is “loss of MurC inhibition”.
